Source: patent US20220073557A1, “FLUORINATED BILE ACIDS” (NZP UK LIMITED, priority 2018, published 2022)

Key:
[1] = tested on: sporadic PD patient fibroblasts; experiment: Mitochondrial membrane potential (MMP, TMRM) in sporadic PD patient fibroblasts; assay type: cell-based; settings: Homo sapiens, Fibroblast, 24 h
Experimental: (§1) Fibroblasts were cultured in DMEM (Invitrogen) and routinely subcultured every 3-5 days using trypsin to dissociate them.
Fibroblasts were cultured and plated into a Griener black 384 pClear® plate at 10000 cells per well in 50 μl of media volume. The plates are left overnight in an incubator to allow the fibroblasts to adhere to the plate surface. The following morning the Glucose based medium is replaced with 25 μl of Galactose based media. The plates were then dosed with the compounds using an ECHO® 550 liquid handling system. The wells were dosed to provide an 8-point concentration range of 0.06 nM-300 nM of compound. After dosing the wells are topped up with a further 25 μl of Galactose based medium and then left in an incubator for 24 hours. After 24 hours, the medium is removed from the wells and replaced with 25 ul phenol free Minimal essential medium with 100 nM TMRM (Sigma) and 10 μM Hoechst Stain (Sigma). The plate is returned to the incubator for another hour after which the stain medium is removed and replaced with 25 ul Phenol free MEM. The plate is then imaged using an IN Cell high content microscope (GE Healthcare) with 10 fields of view per well in 2 channels, Cy3 excitation 542 nm, emission 604-64 nm; and the DAPI excitation 350 nm, emission 450-55 nm at 37° C. with CO2. After imaging the plate is disposed of and the images are Data mined using the INCell developer Toolkit (GE Healthcare).
(§2) After the assays had been repeated in triplicate per line and compound the data was then inputted into Graph pad Prism 7 software suite where a dose response curve is generated using the default “[Agonist] vs response (three parameters)” equation.
(§3) From this EC50 values, lowest response and maximal response were taken and used to calculate the Geometric mean between the 5 different lines assessed.
The mitochondrial membrane potential was measured in fibroblasts from 6 (Table 1) or 3 (Table 2) patients with sporadic Parkinson's disease when treated with Compounds of the invention or Comparator compounds. The results are shown in Tables 1 and 2, where “Bottom”=max response with lowest dose of compound (0.06 nM) and “top”=max response with highest dose of compound (300 nM).

[2] = tested on: sporadic PD patient fibroblasts; experiment: Cellular ATP levels (ATPlite, normalised to CyQUANT DNA content) in sporadic PD patient fibroblasts; assay type: cell-based; settings: Homo sapiens, Fibroblast, 24 h
Experimental: as §1
The ATP protocol is generally as described in Mortiboys et al, “Mitochondrial function and morphology are impaired in parkin-mutant fibroblasts”, Ann Neurol. 2008 November; 64(5):555-65. Briefly, fibroblasts were cultured as and plated into white 384 well plates with 5000 cells per well in 50 μl of media volume. The plates are left overnight in an incubator to allow the fibroblasts to adhere to the plate surface. The following morning the Glucose based medium is replaced with 25 μl of Galactose based medium. The compounds are added to the plates using a ECHO 550 liquid handling system. The wells were dosed to provide an 8-point concentration range of 0.06 nM-300 nM of compound. After dosing the wells are topped up with a further 25 μl of Galactose based medium and then left in an incubator for 24 hours. Following this incubation the medium is removed from the plate and the wells are washed twice with sterile PBS. The wells are filled with 25 μl of Sterile PBS followed by 12.5 μl of Lysis solution from the ATPlite™ Luminescence ATP detection assay system (Perkin Elmer), including 16 cell free wells to use as blank controls. The plate is then placed on a rotary shaker for 5 mins at 700 rpm. Following the shaking 12.5 μl of ATP substrate solution (Perkin Elmer) is added to each well and a further 5 min of shaking. The plate is then placed in darkness for 10 minutes prior to reading. Using a PHERAStar® plate reader, luminescence intensity is recorded. Following the ATP assay the plates are immediately assayed for DNA content in a CyQUANT® assay.
Immediately following The ATP assay DNA content is assessed with the CyQUANT® NF Cell Proliferation Assay Kit (ThermoFisher). CyQUANT® buffer is prepared immediately before the assay and is comprised of 1 ul CyQUANT® dye per ml×1 HBSS solution. 12.5 ul of CyQUANT® buffer is added to each well. Plate left in incubator for 1 hour then read on a PHERAStar® Plate reader with excitation at 497 nm and emission at 520 nm. ATP Quantification for each well is determined using the following formula: […]
as §2, §3
Cellular ATP levels were measured in fibroblasts from 6 (Table 3) or 3 (Table 4) patients with sporadic Parkinson's disease when treated with Compounds of the invention or Comparator compounds. The results are shown in Tables 3 and 4, where “Bottom”=max response with lowest dose of compound (0.06 nM) and “top”=max response with highest dose of compound (300 nM).

## C[C@H](CCC(=O)O)[C@H]1CC[C@H]2[C@@H]3[C@@H](O)C[C@@H]4C[C@@H](O)C(F)(F)C[C@]4(C)[C@H]3CC[C@]12C [Compound 7, 2,2-difluoro-3β,7β-dihydroxy-5β-cholanic acid]
[1]; read-out: MMP Bottom (% of vehicle treated)
  activity at 60 pM: 100%
[1]; read-out: MMP EC50 (nM)
  EC50: 4.07 nM
[1]; read-out: MMP Top (% of vehicle treated)
  activity at 0.3 µM: 114%
[2]; read-out: Cellular ATP levels Bottom (% of vehicle treated)
  activity at 60 pM: 112%
[2]; read-out: Cellular ATP levels EC50 (nM)
  EC50: 0.429 nM
[2]; read-out: Cellular ATP levels Top (% of vehicle treated)
  activity at 0.3 µM: 172%
